# Reference: ChEMBL document CHEMBL2407063, “Synthesis and in vitro cellular uptake of 11C-labeled 5-aminolevulinic acid derivative to estimate the induced cellular accumulation of protoporphyrin IX” (Bioorg Med Chem Lett, 2013)
# Tests used:
# ASPC1 [1] = test: Cellular uptake in human AsPC1 cells at 15 MBq after 10 mins by gamma counting in presence of beta-transporter substrate GABA; assay type: ADME, cell-based; details: aspc1, 10 min
# ASPC1 [2] = test: Cellular uptake in human AsPC1 cells at 15 MBq after 10 mins by gamma counting in presence of PEPT1/2 substrate glycylsarcosine; assay type: ADME, cell-based; details: aspc1, 10 min
# ASPC1 [3] = test: Cellular uptake in human AsPC1 cells at 15 MBq after 10 mins by gamma counting in presence of aminolevulinic acid; assay type: ADME, cell-based; details: aspc1, 10 min
# ASPC1 [4] = test: Cellular uptake in human AsPC1 cells at 15 MBq by gamma counting; assay type: ADME, cell-based; details: TDE = time-dependent effect
# [5] = target: T1, Delta-aminolevulinic acid dehydratase (Homo sapiens, UniProt P13716); test: Inhibition of ALAD (unknown origin)
# T1 sequence (P13716 whole entry): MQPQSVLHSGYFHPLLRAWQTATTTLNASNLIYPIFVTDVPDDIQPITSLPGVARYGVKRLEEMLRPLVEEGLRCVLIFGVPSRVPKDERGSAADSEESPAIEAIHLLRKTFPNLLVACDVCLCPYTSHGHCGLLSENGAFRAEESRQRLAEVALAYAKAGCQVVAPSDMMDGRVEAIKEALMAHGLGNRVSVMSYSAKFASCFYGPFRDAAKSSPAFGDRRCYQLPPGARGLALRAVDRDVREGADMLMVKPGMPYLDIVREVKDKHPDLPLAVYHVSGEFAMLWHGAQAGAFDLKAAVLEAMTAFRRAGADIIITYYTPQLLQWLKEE
# [6] = Protein binding in mouse serum by ultrafiltration method; assay type: ADME, cell-free; details: read-out: PB (converted)
# [7] = […] in mouse serum after 60 mins by HPLC analysis; assay type: ADME, cell-free
smiles,measurement,setting,value
[11CH3]C(N)C(=O)CCC(=O)O (racemic),Drug uptake,ASPC1 [1],Not Active
same,Drug uptake,ASPC1 [2],Not Active
same,Drug uptake,ASPC1 [3],Not Active
same,Drug uptake,ASPC1 [4],tde
same,Ki,[5],0.2 µM
same,fraction unbound,[6],0.973
same,fraction unbound at 1 h,[7],0.974
